Test results reported in paper PMC10253498 (RSC Advances, 2023).
“Also recorded” adds a separate entry of the source. Marks after values point to notes of the source that are not given here.

Experiments:
[1] = biological target: butyryl cholinesterase (BChE) (Homo sapiens, UniProt P06276); test: Butyryl cholinesterase inhibition assay; format: biochemical; settings: for BChE %age inhibition: test concentration not given
[2] = biological target: T1, monoamine oxidase A (MAO-A, extracted) (Homo sapiens, UniProt P21397); settings: for MAO-A %age inhibition: compounds not above 50% inhibition, test concentration not given
T1 sequence (P21397 1-527): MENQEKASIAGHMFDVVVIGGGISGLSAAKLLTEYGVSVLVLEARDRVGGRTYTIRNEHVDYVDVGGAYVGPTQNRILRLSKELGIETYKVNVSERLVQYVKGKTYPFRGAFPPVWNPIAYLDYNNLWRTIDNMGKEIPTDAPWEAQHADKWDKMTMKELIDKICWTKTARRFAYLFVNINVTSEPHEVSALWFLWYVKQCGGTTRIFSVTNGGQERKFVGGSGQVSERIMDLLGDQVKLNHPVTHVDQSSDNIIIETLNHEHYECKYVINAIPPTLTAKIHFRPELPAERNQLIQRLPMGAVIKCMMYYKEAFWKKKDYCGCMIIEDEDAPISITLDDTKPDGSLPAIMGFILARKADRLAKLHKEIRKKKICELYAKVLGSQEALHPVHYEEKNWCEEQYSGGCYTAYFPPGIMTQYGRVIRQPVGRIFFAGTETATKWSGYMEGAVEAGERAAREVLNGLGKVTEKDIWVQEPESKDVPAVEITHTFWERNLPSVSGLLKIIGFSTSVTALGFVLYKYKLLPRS

[3] = biological target: T2, monoamine oxidase B (MAO-B, extracted) (Homo sapiens, UniProt P27338); settings: for MAO-B %age inhibition: compounds not above 50% inhibition, test concentration not given
T2 sequence (P27338 1-520): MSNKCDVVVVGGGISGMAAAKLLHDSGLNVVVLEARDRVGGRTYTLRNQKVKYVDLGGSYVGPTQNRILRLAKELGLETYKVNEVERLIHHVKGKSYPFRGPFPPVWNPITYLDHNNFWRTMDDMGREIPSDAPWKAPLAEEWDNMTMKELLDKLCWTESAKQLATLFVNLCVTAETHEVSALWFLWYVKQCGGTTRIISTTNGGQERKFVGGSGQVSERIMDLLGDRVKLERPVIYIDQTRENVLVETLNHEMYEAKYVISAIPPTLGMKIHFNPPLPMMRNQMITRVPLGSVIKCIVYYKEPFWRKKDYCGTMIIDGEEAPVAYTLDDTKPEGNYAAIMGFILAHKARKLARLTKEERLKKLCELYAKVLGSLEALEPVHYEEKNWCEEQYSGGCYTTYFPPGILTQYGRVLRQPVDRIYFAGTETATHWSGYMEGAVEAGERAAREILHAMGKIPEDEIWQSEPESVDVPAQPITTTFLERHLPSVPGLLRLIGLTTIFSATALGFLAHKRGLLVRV

[4] = biological target: T3, acetyl cholinesterase (AChE) (Homo sapiens, UniProt P22303); settings: for AChE %age inhibition: test concentration not given
T3 sequence (P22303 32-614, species assumed): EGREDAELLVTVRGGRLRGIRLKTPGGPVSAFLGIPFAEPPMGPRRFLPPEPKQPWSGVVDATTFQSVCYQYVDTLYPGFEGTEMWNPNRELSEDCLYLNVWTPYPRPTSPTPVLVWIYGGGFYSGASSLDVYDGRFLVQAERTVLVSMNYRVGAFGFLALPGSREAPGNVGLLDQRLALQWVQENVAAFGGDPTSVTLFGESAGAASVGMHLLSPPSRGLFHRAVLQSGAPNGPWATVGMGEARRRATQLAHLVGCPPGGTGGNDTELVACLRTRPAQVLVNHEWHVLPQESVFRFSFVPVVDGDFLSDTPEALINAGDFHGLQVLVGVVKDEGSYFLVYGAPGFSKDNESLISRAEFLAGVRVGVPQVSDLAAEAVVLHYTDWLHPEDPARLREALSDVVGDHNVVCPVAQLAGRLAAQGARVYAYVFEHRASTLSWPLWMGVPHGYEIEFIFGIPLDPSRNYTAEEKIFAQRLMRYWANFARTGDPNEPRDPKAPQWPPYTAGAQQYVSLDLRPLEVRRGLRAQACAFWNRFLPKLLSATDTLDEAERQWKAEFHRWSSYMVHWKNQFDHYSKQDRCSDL

[5] = biological target: T1, monoamine oxidase A (MAO-A, extracted); test: biochemical
Experimental: (§1) Newly synthesized compounds were tested on monoamine oxidase A and B (extracted). […] Reaction mixture was composed of 100 μL of total assay volume having 30 μL buffer (pH 7.4), 10 μL test compounds, 10 μL of extracted enzyme (MAO-A: 13 μg mL^−1, MAO-B: 15 μg mL^−1), 30 μL of amplex red and 20 μL of substrate (p-tyramine). Initially reaction mixture having buffer + test compound + enzyme was incubated for 15 minutes for MAO-A And MAO-B. After Incubation the amplex red reagent was added followed by addition of substrate p-tyramine. The change in the fluorescence was determined by using fluorescence plate reader: FLUOstar® Omega (BMG Labtech GmbH, orten berg Germany). […] All experiments were performed in triplicate. IC50 values were calculated by non-linear curve fitting program PRISM 5.0 (GraphPad, San Diego, California, USA) where log inhibitor vs. response curve was generated.

[6] = biological target: T2, monoamine oxidase B (MAO-B, extracted); test: biochemical
Experimental: as §1

[7] = biological target: T3, acetyl cholinesterase (AChE); test: biochemical

Chain of butyryl cholinesterase (BChE) (P06276 29-602, species assumed): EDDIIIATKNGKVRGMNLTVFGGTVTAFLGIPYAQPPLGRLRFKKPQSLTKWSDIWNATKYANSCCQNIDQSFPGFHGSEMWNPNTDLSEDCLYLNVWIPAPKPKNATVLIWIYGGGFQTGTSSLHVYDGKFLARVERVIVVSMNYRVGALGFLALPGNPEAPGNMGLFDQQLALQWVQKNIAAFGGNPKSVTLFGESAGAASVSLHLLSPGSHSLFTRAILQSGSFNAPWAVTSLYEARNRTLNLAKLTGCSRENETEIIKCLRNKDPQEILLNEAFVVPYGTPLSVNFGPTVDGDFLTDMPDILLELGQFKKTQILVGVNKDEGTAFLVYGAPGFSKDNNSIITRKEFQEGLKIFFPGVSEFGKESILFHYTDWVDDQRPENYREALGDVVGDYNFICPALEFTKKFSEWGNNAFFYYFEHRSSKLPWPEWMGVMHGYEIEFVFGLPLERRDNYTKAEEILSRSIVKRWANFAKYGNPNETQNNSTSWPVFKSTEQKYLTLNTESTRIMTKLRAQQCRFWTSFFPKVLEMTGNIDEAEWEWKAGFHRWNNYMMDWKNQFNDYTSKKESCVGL

Structure (SMILES) | BChE %age inhibition [1] | inhibition against MAO-A (in words) [2] | MAO-A %age inhibition [2] | MAO-B %age inhibition [3] | inhibition against AChE (in words) [4] | AChE %age inhibition [4] | IC50 [5] | inhibition against MAO-B (in words) [3] | IC50 [6] | IC50 [7] | inhibition against BChE (in words) [1]
N#Cc1cccc(Nc2nnc(-c3ccc(C(F)(F)F)cc3)o2)c1 [Compound 4a, 3-((5-(4-(Trifluoromethyl)phenyl)-1,3,4-oxadiazol-2-yl)amino)benzonitrile] | 20.54% ^c | weak inhibition | 33.23 ^c % | 37.06 ^c % | moderate to weak inhibition | 42.32% ^c |  |  |  |  | 
N#Cc1cccc(Nc2nnc(Cc3ccccc3C(F)(F)F)o2)c1 [Compound 4b, 3-((5-(2-(Trifluoromethyl)benzyl)-1,3,4-oxadiazol-2-yl)amino)benzonitrile] | 23.65% ^c |  |  | 35.73 ^c % | moderate to weak inhibition | 31.34% ^c | 2.86 ± 1.51 µM |  |  |  | 
Fc1ccccc1Nc1nnc(Cc2ccccc2C(F)(F)F)o1 [Compound 4c, N-(2-Fluorophenyl)-5-(2-(trifluoromethyl)benzyl)-1,3,4-oxadiazol-2-amine] | 14.76% ^c | potent inhibition |  |  |  |  | 1.9 ± 0.25 µM | strong inhibition |  |  | 
c1ccc(Nc2nnc(-c3ccncc3)o2)cc1 [Compound 4d, N-Phenyl-5-(pyridin-4-yl)-1,3,4-oxadiazol-2-amine] | 23.67% ^c | potent inhibition; also recorded: promising inhibitory effects |  |  |  |  | 1.44 ± 0.22 µM | strong inhibition; also recorded: promising inhibitory effects |  |  | 
Cc1ccc(Nc2nnc(-c3cccc(F)c3)o2)c(C)c1 [Compound 4e, N-(2,4-Dimethylphenyl)-5-(3-fluorophenyl)-1,3,4-oxadiazol-2-amine] | 10.54% ^c | potent inhibition |  |  | potent inhibition |  | 1.47 ± 0.45 µM | strong inhibition | 1.91 ± 0.89 µM | 1.96 ± 0.176 µM | 
Fc1cc(F)cc(Cc2nnc(Nc3ccccc3F)o2)c1 [Compound 4f, 5-(3,5-Difluorobenzyl)-N-(2-fluorophenyl)-1,3,4-oxadiazol-2-amine] | 22.61% ^c | weak inhibition | 34.82 ^c % | 39.46 ^c % | potent inhibition |  |  |  |  | 2.03 ± 0.434 µM | 
Fc1cc(F)cc(Cc2nnc(Nc3ccc(F)cc3F)o2)c1 [Compound 4g, N-(2,4-Difluorophenyl)-5-(3,5-difluorobenzyl)-1,3,4-oxadiazol-2-amine] | 15.23% ^c | potent inhibition |  |  |  |  | 1.21 ± 0.04 µM | strong inhibition | 2.02 ± 1.26 µM | 1.11 ± 0.08 µM | 
Cc1ccc(F)c(-c2nnc(Nc3ccccc3F)o2)c1 [Compound 4h, 5-(2-Fluoro-5-methylphenyl)-N-(2-fluorophenyl)-1,3,4-oxadiazol-2-amine] | 12.43% ^c | weak inhibition | 21.87 ^c % | 29.36 ^c % | potent inhibition |  |  |  |  | 1.51 ± 0.462 µM | 
Fc1ccccc1Nc1nnc(-c2ccc(C(F)(F)F)cc2)o1 [Compound 4i, N-(2-Fluorophenyl)-5-(4-(trifluoromethyl)phenyl)-1,3,4-oxadiazol-2-amine] | 21.45% ^c | weak inhibition | 38.11 ^c % | 32.53 ^c % | potent inhibition; also recorded: moderate to weak inhibition | 37.12% ^c |  |  |  |  | 
N#Cc1cccc(Nc2nnc(-c3ccncc3)o2)c1 [Compound 4j, 3-((5-(Pyridin-4-yl)-1,3,4-oxadiazol-2-yl)amino)benzonitrile] | 20.55% ^c | potent inhibition |  | 18.57 ^c % | potent inhibition |  | 1.02 ± 0.09 µM | lost its inhibitory effects |  | 1.56 ± 0.309 µM | 
Cc1ccc(Nc2nnc(-c3ccncc3)o2)c(C)c1 [Compound 4k, N-(2,4-Dimethylphenyl)-5-(pyridin-4-yl)-1,3,4-oxadiazol-2-amine] | 14.67% ^c | potent inhibition |  |  | moderate to weak inhibition; also recorded: lost its inhibitory effects | 39.65% ^c | 3.46 ± 2.58 µM | strong inhibition; also recorded: restored its inhibitory effects | 1.1 ± 1.16 µM |  | 
FC(F)(F)c1ccc(-c2nnc(Nc3ccc(Br)cc3)o2)cc1 [Compound 4l, N-(4-Bromophenyl)-5-(4-(trifluoromethyl)phenyl)-1,3,4-oxadiazol-2-amine] | 26.91% ^c | weak inhibition; also recorded: demolished the activity | 36.81 ^c % | 24.86 ^c % | moderate to weak inhibition; also recorded: demolished the activity | 44.56% ^c |  | demolished the activity |  |  | demolished the activity
CC(C)c1ccc(Nc2nnc(-c3ccc(C(F)(F)F)cc3)o2)cc1 [Compound 4m, N-(4-Isopropylphenyl)-5-(4-(trifluoromethyl)phenyl)-1,3,4-oxadiazol-2-amine] | 15.78% ^c | potent inhibition |  |  |  |  | 0.11 ± 0.001 µM | strong inhibition |  |  | 
Cc1ccccc1Nc1nnc(-c2ccccc2)o1 [Compound 4n, 5-Phenyl-N-(o-tolyl)-1,3,4-oxadiazol-2-amine] | 28.87% ^c | weak inhibition | 21.07 ^c % | 18.47 ^c % |  |  |  |  |  |  | 
Cc1c(F)cccc1-c1nnc(Nc2ccccc2)o1 [Compound 4o, 5-(3-Fluoro-2-methylphenyl)-N-phenyl-1,3,4-oxadiazol-2-amine] | 32.98% ^c |  | 29.98 ^c % | 22.65 ^c % |  |  |  |  |  | 2.32 ± 0.08 µM | 
